From patent US11434242B2, “Dopamine-b-hydroxylase inhibitors” (BIAL-PORTELA & Cª, S.A., priority 2017, dated 2022)

Target: T1, Dopamine beta hydroxylase (Homo sapiens, UniProt P09172)
T1 construct: 125 μl of plasma; tissue Instituto Português do Sangue Transplantação; host or cells: human plasma from healthy donors
T1 sequence (P09172 40-617 limits assumed): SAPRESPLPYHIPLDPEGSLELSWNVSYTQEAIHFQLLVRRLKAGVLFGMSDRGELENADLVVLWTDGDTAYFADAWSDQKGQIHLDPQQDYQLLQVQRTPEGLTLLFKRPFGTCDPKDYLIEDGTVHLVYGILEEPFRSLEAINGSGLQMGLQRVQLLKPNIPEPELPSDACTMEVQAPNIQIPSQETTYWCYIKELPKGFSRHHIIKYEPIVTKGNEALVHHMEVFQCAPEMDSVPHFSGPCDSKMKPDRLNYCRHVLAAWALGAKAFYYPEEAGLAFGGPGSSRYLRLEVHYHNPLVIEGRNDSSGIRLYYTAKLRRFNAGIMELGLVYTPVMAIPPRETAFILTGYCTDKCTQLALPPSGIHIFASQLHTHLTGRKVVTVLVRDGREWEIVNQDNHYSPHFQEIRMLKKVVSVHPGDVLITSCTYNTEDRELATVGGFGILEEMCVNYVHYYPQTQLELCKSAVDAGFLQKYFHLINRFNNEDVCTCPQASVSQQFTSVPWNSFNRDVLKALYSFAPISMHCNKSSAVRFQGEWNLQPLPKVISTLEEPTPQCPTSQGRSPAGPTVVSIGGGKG
Experiment: Dopamine beta hydroxylase activity in human plasma
Type: biochemical
Details: for Plasma (0.01 μM), activity in % of control: inhibitor 0.01 μM; for Plasma (0.1 μM), activity in % of control: inhibitor 0.1 μM
How it was run: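 Healthy-donor human plasma pre-incubated 10 min at 37° C with compound at final 10, 100 or 1000 nM in pH 5.0 acetate buffer with ascorbate, fumarate, pargyline, N-ethylmaleimide, catalase and copper sulfate. Tyramine substrate then added for 45 min; octopamine formed was isolated by SCX cartridge, periodate-converted and read at 330 nm; activity given as % control.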

| Compound | Plasma (0.01 μM), activity in % of control | Plasma (0.1 μM), activity in % of control |
| --- | --- | --- |
| O=C(Cc1[nH]c(=S)n2c1C[C@@H](c1c(F)ccc(Cl)c1F)C2)NCC(F)(F)F [Example 113, (S)-2-(6-(3-chloro-2,6-difluorophenyl)-3-thioxo-2,5,6,7-tetrahydro-3H-pyrrolo[1,2-c]imidazol-1-yl)-N-(2,2,2-trifluoroethyl)acetamide] | 85.1 % of control | 25.6 % of control |
| CS(=O)(=O)CCNC(=O)Cc1[nH]c(=S)n2c1C[C@@H](c1c(F)ccc(Cl)c1F)C2 [Example 114, (S)-2-(6-(3-chloro-2,6-difluorophenyl)-3-thioxo-2,5,6,7-tetrahydro-3H-pyrrolo[1,2-c]imidazol-1-yl)-N-(2-(methylsulfonyl)ethyl)acetamide] | 58.4 % of control | 7.5 % of control |
| Cl.O=C(Cc1[nH]c(=S)n2c1C[C@@H](c1c(F)ccc(Cl)c1F)C2)NCCN1CCC(F)(F)CC1 [Example 115, (S)-2-(6-(3-chloro-2,6-difluorophenyl)-3-thioxo-2,5,6,7-tetrahydro-3H-pyrrolo[1,2-c]imidazol-1-yl)-N-(2-(4,4-difluoropiperidin-1-yl)ethyl)acetamide Hydrochloride] | 48.0 % of control | 0 % of control |
| O=C(Cc1[nH]c(=S)n2c1C[C@H](c1c(F)ccc(Br)c1F)C2)N[C@@H]1CCOC1 [Example 116, 2-((R)-6-(3-bromo-2,6-difluorophenyl)-3-thioxo-2,5,6,7-tetrahydro-3H-pyrrolo[1,2-c]imidazol-1-yl)-N—((R)-tetrahydrofuran-3-yl)acetamide] | 93.8 % of control | 68.8 % of control |
| O=C(Cc1[nH]c(=S)n2c1C[C@H](c1c(F)ccc(Br)c1F)C2)N1CCC(F)(F)CC1 [Example 117, (R)-2-(6-(3-bromo-2,6-difluorophenyl)-3-thioxo-2,5,6,7-tetrahydro-3H-pyrrolo[1,2-c]imidazol-1-yl)-1-(4,4-difluoropiperidin-1-yl)ethan-1-one] | 74.5 % of control | 43.0 % of control |
| CS(=O)(=O)CCNC(=O)Cc1[nH]c(=S)n2c1C[C@H](c1c(F)ccc(Br)c1F)C2 [Example 118, (R)-2-(6-(3-bromo-2,6-difluorophenyl)-3-thioxo-2,5,6,7-tetrahydro-3H-pyrrolo[1,2-c]imidazol-1-yl)-N-(2-(methylsulfonyl)ethyl)acetamide] | 89.2 % of control | 49.0 % of control |
| O=C(Cc1[nH]c(=S)n2c1C[C@H](c1c(F)ccc(Br)c1F)C2)NCCO [Example 119, (R)-2-(6-(3-bromo-2,6-difluorophenyl)-3-thioxo-2,5,6,7-tetrahydro-3H-pyrrolo[1,2-c]imidazol-1-yl)-N-(2-hydroxyethyl)acetamide] | 118.2 % of control | 87.7 % of control |
| O=C(Cc1[nH]c(=S)n2c1C[C@H](c1c(F)ccc(Br)c1F)C2)NC1CCCC1CO (stereo partly drawn) [Example 120, 2-((R)-6-(3-bromo-2,6-difluorophenyl)-3-thioxo-2,5,6,7-tetrahydro-3H-pyrrolo[1,2-c]imidazol-1-yl)-N-(2-(hydroxymethyl)cyclopentyl)acetamide] | 132.5 % of control | 86.2 % of control |
| O=C(Cc1[nH]c(=S)n2c1C[C@H](c1c(F)ccc(Br)c1F)C2)N1CCCC(O)C1 (stereo partly drawn) [Example 121, 2-((R)-6-(3-bromo-2,6-difluorophenyl)-3-thioxo-2,5,6,7-tetrahydro-3H-pyrrolo[1,2-c]imidazol-1-yl)-1-(3-hydroxypiperidin-1-yl)ethan-1-one] | 79.3 % of control | 62.6 % of control |
| CC(C)(C)OC(=O)N1CCC[C@@H]1CNC(=O)Cc1[nH]c(=S)n2c1C[C@@H](c1c(F)ccc(Br)c1F)C2 [Example 122, tert-butyl (R)-2-((2-((S)-6-(3-bromo-2,6-difluorophenyl)-3-thioxo-2,5,6,7-tetrahydro-3H-pyrrolo[1,2-c]imidazol-1-yl)acetamido)methyl)pyrrolidine-1-carboxylate] | 70.8 % of control | 13.0 % of control |
| CS(=O)(=O)C1CCN(C(=O)Cc2[nH]c(=S)n3c2C[C@@H](c2c(F)ccc(Br)c2F)C3)CC1 [Example 123, (S)-2-(6-(3-bromo-2,6-difluorophenyl)-3-thioxo-2,5,6,7-tetrahydro-3H-pyrrolo[1,2-c]imidazol-1-yl)-1-(4-(methylsulfonyl)piperidin-1-yl)ethan-1-one] | 51.9 % of control | 6.3 % of control |
| O=C(Cc1[nH]c(=S)n2c1C[C@@H](c1c(F)ccc(Br)c1F)C2)NCc1cccnc1 [Example 124, (S)-2-(6-(3-bromo-2,6-difluorophenyl)-3-thioxo-2,5,6,7-tetrahydro-3H-pyrrolo[1,2-c]imidazol-1-yl)-N-(pyridin-3-ylmethyl)acetamide] | 42.8 % of control | 3.3 % of control |
| O=C(Cc1[nH]c(=S)n2c1C[C@H](c1c(F)ccc(Br)c1F)C2)N1CCS(=O)(=O)CC1 [Example 125, (R)-2-(6-(3-bromo-2,6-difluorophenyl)-3-thioxo-2,5,6,7-tetrahydro-3H-pyrrolo[1,2-c]imidazol-1-yl)-1-(1,1-dioxidothiomorpholino)ethan-1-one] | 106.5 % of control | 43.7 % of control |
| CS(=O)(=O)C1CCN(C(=O)Cc2[nH]c(=S)n3c2C[C@H](c2c(F)ccc(Br)c2F)C3)CC1 [Example 126, (R)-2-(6-(3-bromo-2,6-difluorophenyl)-3-thioxo-2,5,6,7-tetrahydro-3H-pyrrolo[1,2-c]imidazol-1-yl)-1-(4-(methylsulfonyl)piperidin-1-yl)ethan-1-one] | 100.2 % of control | 40.2 % of control |
| C[C@@H](NC(=O)Cc1[nH]c(=S)n2c1C[C@H](c1c(F)ccc(Br)c1F)C2)C1CCCCC1 [Example 127, 2-((R)-6-(3-bromo-2,6-difluorophenyl)-3-thioxo-2,5,6,7-tetrahydro-3H-pyrrolo[1,2-c]imidazol-1-yl)-N—((R)-1-cyclohexylethyl)acetamide] | 81.3 % of control | 83.8 % of control |
| CN(C(=O)Cc1[nH]c(=S)n2c1C[C@H](c1c(F)ccc(Br)c1F)C2)C1CCOCC1 [Example 128, (R)-2-(6-(3-bromo-2,6-difluorophenyl)-3-thioxo-2,5,6,7-tetrahydro-3H-pyrrolo[1,2-c]imidazol-1-yl)-N-methyl-N-(tetrahydro-2H-pyran-4-yl)acetamide] | 98.1 % of control | 29.7 % of control |
| O=C(Cc1[nH]c(=S)n2c1C[C@H](c1c(F)c(F)cc(F)c1F)C2)NC1CCS(=O)(=O)CC1 [Example 129, (R)—N-(1,1-dioxidotetrahydro-2H-thiopyran-4-yl)-2-(6-(2,3,5,6-tetrafluorophenyl)-3-thioxo-2,5,6,7-tetrahydro-3H-pyrrolo[1,2-c]imidazol-1-yl)acetamide] | 50.1 % of control | 10.3 % of control |
